In brackets after ≈: the same amount, converted by molar mass. Entries after “also recorded” stand apart in the source; their conditions may differ. Like-named read-outs stand apart in the source and are kept apart here.
Key:
[1] = system: S. aureus WCUH29 wild type; assay: MIC broth microdilution; assay type: cell-based, Staphylococcus aureus; conditions: for MIC: Staphylococcus aureus, WCUH29WILDTYPE
[2] = biological target: S. aureus methionine aminopeptidase, MetAP (Staphylococcus aureus, UniProt P0A078); assay: MetAP biochemical assay (fluorescence intensity coupled); conditions: average of two replicates with s.d.
Description: (§1) 368 Both the S. aureus and A. baumannii UppS in vitro biochemical assay use a pyrophosphatase and Biomol
(§2) 369 Green Phosphate detection reagent to assess catalytic activity. These assays were based on previously
(§3) 370 described assays both within GSK and others11-13. Briefly, the enzyme will add up to 8 isopentyl
(§4) 371 pyrophosphate (IPP) units onto a farnesyl pyrophosphate FPP molecule, resulting in the production of 8
(§5) 372 moles of inorganic pyrophosphates per mole of substrate added. The pyrophosphate is then converted
(§6) 373 to inorganic phosphate by a pyrophosphatase, and this phosphate is detected by Biomol Green. The
(§7) 374 assay is conducted in buffer containing 100 mM Trizma pH7.5, 1 mM MgCl2, 6 mM CHAPS and 0.005% […]
(§8) 378 10 μL. The detection reagent was incubated for 20 min and 610-620 nm light was monitored by a Perkin
(§9) 379 Elmer Envision plate reader. […]
(§10) 383 Standard deviation values were calculated using the n-1 method. […]
(§11) 388 A fluorescence intensity coupled assay was used to measure the in vitro biochemical activity of S. aureus […]
(§12) 391 enzyme then digests the liberated peptide GFGF-AFC releasing the AFC causing a fluorescence increase
(§13) 392 monitored by an Envision plate reader. […]
(§14) 395 90 minute incubation with quench/detection solution, plates were read on an envision plate reader with […]
(§15) 406 A fluorescence intensity coupled assay was used to measure the in vitro biochemical activity of M. […]

[3] = system: Klebsiella pneumoniae 1161486a ΔtolC; assay: MIC broth microdilution; assay type: cell-based
[4] = system: Acinetobacter baumannii BM4652 ΔadeABC ΔadeIJK (efflux mutant); assay: MIC broth microdilution; assay type: cell-based
[5] = system: Acinetobacter baumannii ATCC 19606-1 ΔLpxC; assay: MIC broth microdilution; assay type: cell-based; conditions: ATCC19606
[6] = system: Pseudomonas aeruginosa PA0322 Δ(mexAB-oprM) Δ(mexCD-oprJ) Δ(mexEF-oprN); assay: MIC broth microdilution; assay type: cell-based
[7] = system: Haemophilus influenzae H128 ΔacrB; assay: MIC broth microdilution; assay type: cell-based
[8] = system: A. baumannii BM4652 efflux mutant, pRK415 and pRK415-UppS; assay: microbe, parasite or virus in culture; assay type: cell-based, Acinetobacter baumannii
A. baumannii UppS = A. baumannii UppS (Acinetobacter baumannii, UniProt V5VCK8); assay: UppS biochemical assay (pyrophosphatase / Biomol Green); conditions: average of two replicates with s.d.
Description: as §1, §2, §3, §4, §5, §6, §7, §8, §9, §10, §11, §12, §13, §14, §15

[9] = system: Escherichia coli 7623 ΔtolC; assay: MIC broth microdilution; assay type: cell-based

Chain of S. aureus methionine aminopeptidase, MetAP (P0A078 whole entry): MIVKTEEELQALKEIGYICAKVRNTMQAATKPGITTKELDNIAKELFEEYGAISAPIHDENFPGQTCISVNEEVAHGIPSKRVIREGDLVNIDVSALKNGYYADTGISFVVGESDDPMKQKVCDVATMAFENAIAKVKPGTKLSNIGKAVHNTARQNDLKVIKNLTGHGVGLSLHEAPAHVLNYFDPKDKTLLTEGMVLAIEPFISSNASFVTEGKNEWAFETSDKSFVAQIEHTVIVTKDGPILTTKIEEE
Chain of A. baumannii UppS (V5VCK8 entry or part of it): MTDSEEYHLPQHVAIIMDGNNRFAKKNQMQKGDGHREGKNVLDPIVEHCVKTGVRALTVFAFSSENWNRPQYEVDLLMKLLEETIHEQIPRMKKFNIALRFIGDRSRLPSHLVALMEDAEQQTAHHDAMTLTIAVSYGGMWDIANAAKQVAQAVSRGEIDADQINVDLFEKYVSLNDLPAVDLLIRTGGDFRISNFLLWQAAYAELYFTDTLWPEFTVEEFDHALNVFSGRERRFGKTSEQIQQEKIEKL

Row | Compound | antibacterial activity ([1]; S. aureus) | MIC ([1]; S. aureus WCUH29 wild type, read-out: MIC) [µg/mL] | IC50 [2] [nM] | MIC [3] [µg/mL] | MIC [1] [µg/mL] | MIC ([4]; A. baumannii BM652 efflux strain) [µg/mL] | MIC ([4]; A. baumannii BM4652 ΔadeABC ΔadeIJK efflux mutant) [µg/mL] | MIC [5] [µg/mL] | MIC [6] [µg/mL] | MIC [7] [µg/mL] | MIC ([8]; A. baumannii BM4652 efflux mutant + pRK415-UppS, 30 μg/ml polymyxin B nonapeptide) [µg/mL] | MIC ([8]; A. baumannii BM4652 efflux mutant + pRK415, 30 μg/ml polymyxin B nonapeptide) [µg/mL] | MIC ([8]; Acinetobacter baumannii, A. baumannii BM4652 efflux mutant + pRK415-UppS, 30 μg/ml polymyxin B nonapeptide) [µg/mL] | MIC ([8]; Acinetobacter baumannii, A. baumannii BM4652 efflux mutant + pRK415, 30 μg/ml polymyxin B nonapeptide) [µg/mL] | MIC ([8]; Acinetobacter baumannii, A. baumannii BM4652 efflux mutant, N/A (no plasmid), 30 μg/ml polymyxin B nonapeptide) [µg/mL] | MIC ([8]; Acinetobacter baumannii, without the permeabilising agent) [µg/mL] | Fold MIC increase ([8]; pRK415-UppS overexpressing strain relative to parent strain, 30 μg/ml polymyxin B nonapeptide) [fold] | IC50 (A. baumannii UppS) [nM] | MIC [9] [µg/mL]
1 | Cc1nnc(Cn2c(C(C)Cc3ccc4c(c3)OCO4)nc3cccc(Cl)c32)[nH]1 (stereo not shown) [Compound 3] | lacked S. aureus antibacterial activity; also recorded: lacks antibacterial activity | > 128 | 350 ± 10 |  |  |  |  |  |  |  |  |  |  |  |  |  |  |  | 
2 | CNC(=O)[C@@H](NC(=O)c1cc(Cl)c(Cl)cc1C(=O)NCc1ccc(C(C)(C)C)cc1)C(C)(C)C [Compound 5] |  |  |  | > 128 | > 128 | > 128 | > 128 | < 0.125 | > 128 | 1 (≈ 1.97 µM) | 2 | 0.25 | 2 | 0.25 | 0.25 | > 128 | 8 | 43 ± 25 | > 128

Reference: paper PMC5520047, “Prioritizing multiple therapeutic targets in parallel using automated DNA-encoded library screening” (Nature Communications, 2017)
